From paper PMC10873978, “Novel tetrahydroisoquinolines as DHFR and CDK2 inhibitors: synthesis, characterization, anticancer activity and antioxidant properties” (BMC Chemistry, 2024)
Entries after “also recorded” stand apart in the source; their conditions may differ.

Assays:
A549 cell line = test: In vitro cytotoxic activity, MTT method, A549; conditions: for IC50: Homo sapiens, read-out: IC50 ± SD
Description: (§1) Cell lines: The in vitro human breast cancerous cell line (MCF7), lung cancerous cell lines (A549) and normal cell lines were purchased from Serum and Vaccine formulation in Cairo-Egypt.
(§2) In vitro cytotoxic activity of all synthesized compounds against two human breast cell line (MCF7) and lung cell lines (A549) was evaluated according to the MTT method. Firstly, Growth the cell line medium in 96 well tissue culture plate was injected with 10^5 cells/mL (100 uL/plate well) of the cell line and incubated at 37 °C for 24 h to develop a monolayer sheet then the formed growth medium was poured from 96 well microtiter plates after the confluent sheet of cells. […] Secondly, add 0.1 mL of each concentration tetrahydroisoquinoline sample to each plate. The plates were incubated at 37 °C. Thirdly MTT solution (5 mg/mL in PBS) is prepared. Add 20 µL of MTT solution to each well plates. And shaking in 150 rpm for 5 min, to mix the MTT into the media. Then incubate at (37 °C, 5% CO2) for 1–5 h. Finally read the optical density at 560 nm and subtract background at 620 nm.
(§3) In this work, doxorubicin was used as a positive control drug for comparison with the synthesized compounds under the same experimental conditions.

MCF7 cell line = test: In vitro cytotoxic activity, MTT method, MCF7; type: cell-based, human; conditions: for IC50: Homo sapiens, MCF7, MCF7 cell line, MTT
Description: as §1, §2, §3

[1] = DPPH scavenging antioxidant activity
Description: The antioxidant activity of ten compounds was determined using DPPH [32–34]. A solution 1: prepared by dissolving DPPH (0.002 g) in ethanol (50 mL etnanol). Solution 2: prepared by dissolving different weights 0.05, 0.01 g of each sample in 1 mL of DMSO then take 10 µL of each sample solution with 1 mL ethanol. Then mix 1 mL of solution 1 with 1 mL of solution 2 then vortex the resulting mixture in the dark for about 30 min. The absorbance of the mixture was measured by spectrophotometer at λmax = 517 nm against blank 1 mL absolute ethanol and compared to the ascorbic acid (Vitamin C).
Ten newly synthesized compounds were studied as in vitro antioxidants by measuring of their DPPH scavenging activity which is represented as a percentage % [32]^. Results are represented by mean ± SD of three replicates. […] The higher dose concentration of 0.05 μg/mL represents higher antioxidant activity. […] The high antioxidant activity is referred to the presence of C=O, NH2, and OH groups like ascorbic acid which can be easily oxidized and reduced and can be used as antioxidant drugs. (Fig. 8 and Table 9).

## CC(=O)C1C(c2ccc(N(C)C)cc2)c2c(C)nc(SCC(=O)Nc3ccc(C)cc3)c(C#N)c2CC1(C)O (stereo not drawn) [Compound 7b, 2-[(7-Acetyl-4-cyano-1,6-dimethyl-6-hydroxy-8-(4-N,N-dimethylamino-phenyl)-5,6,7,8-tetrahydroisoquinolin-3-yl)thio]-N-(4-tolyl)acetamide]
A549 cell line; A549, Conc. 0.04875 µMol
  Toxicity %: 0.2467%
  Viability %: 99.7534%
A549 cell line; A549, Conc. 0.0975 µMol
  Toxicity %: 0.3467%
  Viability %: 99.6534%
A549 cell line; A549, Conc. 0.195 µMol
  Toxicity %: 0.5128%
  Viability %: 99.49%
A549 cell line; A549, Conc. 0.391 µMol
  Toxicity %: 14.2%
  Viability %: 85.8%
A549 cell line; A549, Conc. 0.781 µMol
  Toxicity %: 35.82%
  Viability %: 64.18%
A549 cell line; A549, Conc. 1.562 µMol
  Toxicity %: 53.81%
  Viability %: 46.19%
A549 cell line; A549, Conc. 3.125 µMol
  Toxicity %: 72.39%
  Viability %: 27.61%
A549 cell line; A549, Conc. 6.25 µMol
  Toxicity %: 86.39%
  Viability %: 13.61%
A549 cell line; A549, Conc. 12.5 µMol
  Toxicity %: 93.85%
  Viability %: 6.154%
A549 cell line; A549, Conc. 25 µMol
  Toxicity %: 96.41%
  Viability %: 3.59%
A549 cell line
  IC50: 987 ± 2 nM
MCF7 cell line
  IC50: 474 ± 6 nM
MCF7 cell line; MCF7, 0.0487 µMol
  Toxicity %: 4.569%
  Viability %: 95.4311%
MCF7 cell line; MCF7, 0.0975 µMol
  Toxicity %: 6.234%
  Viability %: 93.77%
MCF7 cell line; MCF7, 0.195 µMol
  Toxicity %: 8.333%
  Viability %: 91.67%
MCF7 cell line; MCF7, 0.391 µMol
  Toxicity %: 39.62%
  Viability %: 60.38%
MCF7 cell line; MCF7, 0.781 µMol
  Toxicity %: 74.92%
  Viability %: 25.08%
MCF7 cell line; MCF7, 1.562 µMol
  Toxicity %: 82.39%
  Viability %: 17.61%
MCF7 cell line; MCF7, 3.125 µMol
  Toxicity %: 86.44%
  Viability %: 13.56%
MCF7 cell line; MCF7, 6.25 µMol
  Toxicity %: 93.1%
  Viability %: 6.904%
MCF7 cell line; MCF7, 12.5 µMol
  Toxicity %: 96.61%
  Viability %: 3.391%
MCF7 cell line; MCF7, 25 µMol
  Toxicity %: 96.57%
  Viability %: 3.431%
[1]; 0.01 µg/mL
  DPPH scavenging, inhibition (%): 48.59 ± 0.73%
[1]; 0.05 µg/mL
  DPPH scavenging, inhibition (%): 52.19 ± 0.58%

## CC(=O)C1C(c2ccc(N(C)C)cc2)c2c(C)nc(SCC(=O)Nc3ccc(Cl)cc3)c(C#N)c2CC1(C)O (stereo not drawn) [Compound 7c, 2-[(7-Acetyl-4-cyano-1,6-dimethyl-6-hydroxy-8-(4-N,N-dimethylamino-phenyl)-,5,6,7,8-tetrahydroisoquinolin-3-yl)thio]-N-(4-chlorophenyl)acetamide]
A549 cell line; A549, Conc. 0.04875 µMol
  Toxicity %: 3.457%
  Viability %: 96.54%
A549 cell line; A549, Conc. 0.0975 µMol
  Toxicity %: 4.658%
  Viability %: 95.3422%
A549 cell line; A549, Conc. 0.195 µMol
  Toxicity %: 6.193%
  Viability %: 93.81%
A549 cell line; A549, Conc. 0.391 µMol
  Toxicity %: 33.41%
  Viability %: 66.59%
A549 cell line; A549, Conc. 0.781 µMol
  Toxicity %: 51.48%
  Viability %: 48.52%
A549 cell line; A549, Conc. 1.562 µMol
  Toxicity %: 68.05%
  Viability %: 31.95%
A549 cell line; A549, Conc. 3.125 µMol
  Toxicity %: 77.2%
  Viability %: 22.8%
A549 cell line; A549, Conc. 6.25 µMol
  Toxicity %: 90.57%
  Viability %: 9.428%
A549 cell line; A549, Conc. 12.5 µMol
  Toxicity %: 95.94%
  Viability %: 4.063%
A549 cell line; A549, Conc. 25 µMol
  Toxicity %: 97.44%
  Viability %: 2.564%
A549 cell line
  IC50: 496 ± 3 nM
MCF7 cell line
  IC50: 1491 ± 4 nM
MCF7 cell line; MCF7, 0.0487 µMol
  Toxicity %: -0.6776%
  Viability %: 100.4%
MCF7 cell line; MCF7, 0.0975 µMol
  Toxicity %: -0.5335%
  Viability %: 100.6%
MCF7 cell line; MCF7, 0.195 µMol
  Viability %: 99.47%
MCF7 cell line; MCF7, 0.391 µMol
  Viability %: 100.1634%
MCF7 cell line; MCF7, 0.781 µMol
  Toxicity %: 8.333%
  Viability %: 91.67%
MCF7 cell line; MCF7, 1.562 µMol
  Toxicity %: 36.68%
  Viability %: 63.32%
MCF7 cell line; MCF7, 3.125 µMol
  Toxicity %: 65.48%
  Viability %: 34.52%
MCF7 cell line; MCF7, 6.25 µMol
  Toxicity %: 86.36%
  Viability %: 13.64%
MCF7 cell line; MCF7, 12.5 µMol
  Toxicity %: 80.15%
  Viability %: 19.85%
MCF7 cell line; MCF7, 25 µMol
  Toxicity %: 96.77%
  Viability %: 3.227%
[1]; 0.01 µg/mL
  DPPH scavenging, inhibition (%): 77.90 ± 6.22%
[1]; 0.05 µg/mL
  DPPH scavenging, inhibition (%): 81.39 ± 4.99%
[1]; DPPH
  antioxidant activity compared with Vitamin C: higher result than Vitamin C; also recorded: higher antioxidant activity than Vitamin C
